Molecules are shown by their SMILES. Like-named read-outs stand apart in the source and are kept apart here.

The record followed here is US20250388572A1, “USE OF HPK1 INHIBITOR IN PREVENTION AND/OR TREATMENT OF HUMAN PATHOGEN INFECTION” (priority 2022, published 2025).

The conditions of series [1]: rat, microsomes, 1 h, 10 µM. The procedure: (§1) The procedure for identifying microsomal metabolites is as follows:
(§2) The compounds (test compounds and their numbers are shown below, among which compounds A1 and B1 are prepared by referring to the relevant method disclosed in CN110396087A) were weighed and dissolved into dimethyl sulfoxide to prepare a 20 mM solution. The compound stock solution was diluted with 50% acetonitrile in water (v/v) to a concentration of 1.0 mM as a working solution. Liver microsomes (20 mg/mL) were diluted to 1.27 mg/mL with 50 mM dipotassium hydrogen phosphate buffer as a liver microsome working solution. Reduced coenzyme was weighed and dissolved in 3307 μL of phosphate buffer (50 mM) to 5.0 mM as a reduced coenzyme working solution. For T=60 minutes samples, 4 μL of test working solution (1.0 mM) was added, followed by 316 μL of liver microsome working solution (1.27 mg/mL), and finally, 80 μL of reduced coenzyme working solution was added to start the reaction. For T=0 minutes samples, 316 μL of liver microsome working solution (1.27 mg/mL) was added and then 80 μL of reduced coenzyme working solution was added to start the reaction, without test solution incubation. After incubation at 37° C. for 60 minutes, 1200 μL of stop solution was added to stop the enzyme reaction. For T=0 minute samples, 4 μL of test working solution (1.0 mM) was added. The sample plate was placed on a vortexer and vortexed at 600 rpm for 5 minutes. Then, the sample plate was centrifuged at 4000 rpm for 10 minutes. The supernatant was removed, mixed, and dried at room temperature with nitrogen. The residue dried with nitrogen was redissolved in 300 μL of 10% acetonitrile (0.1% FA) solvent and then centrifuged at 4000 rpm for 15 minutes. The supernatant was transferred to a detection plate for mass spectrometry. Mass spectrometry was performed using LC/Q-Exactive plus.
(§3) 7-Ethoxycoumarin (10 μM) was selected as a positive control compound and operated in parallel with the compounds.

The conditions of series [2]: beagle, dog, microsomes, 1 h, 10 µM. The procedure:
as §1, §2, §3

The conditions of series [3]: cynomolgus macaque, microsomes, 1 h, 10 µM. As for the experimental part:
as §1, §2, §3

The nature of a further series: in vivo. As to conditions: male, Sprague Dawley, rat. The procedure:
Six male Sprague Dawley rats were administrated a single dose via intravenous injection (iv, n=3) and oral administration (po, n=3), respectively. Intravenous injection was performed by formulating the compounds into 0.25 mg/ml or 0.5 mg/mL solutions using 10% DMSO/30% PEG400/60% water and administering it at a volume of 2 mL/kg. Oral administration was performed by formulating the compounds into 0.6 mg/ml or 2.0 mg/mL homogeneous suspensions using 0.5% methylcellulose and administering it at a volume of 5 mL/kg.
The pharmacokinetic parameters of the compounds were calculated using the WinNolin non-compartmental model.

Another series has as its system HSV virus. The experiment in a line: Pharmacodynamic evaluation for viral keratitis (HSV) in mice. The class given is in vivo, C57 mice. To be noted: for corneal perforation: right eye, 2 weeks, control: 2 eyes perforated from day 5; for clinical score at the highest peak of the disease (day 5): control group above 6. As for the experimental part:
Fifteen C57 mice (body weight: 22 g to 25 g), aged 8 weeks, were subjected to viral keratitis modeling in their right eyes. During the modeling process, a sterile 25G needle was used to make […]parallel scratches on the cornea of the right eye of all the animals. The scratch depth should be in the superficial zone and cannot penetrate the stroma layer. The scratches between each eyeball should be moderately uniform in depth and evenly distributed in density. Then, 4 μl of well-mixed HSV virus solution was dripped using a fiber syringe (titer: 2.0*10^6 PFU/ml) to complete the modeling. The day of modeling was set as DO. One day after modeling, the animals' right eyes were scored for viral keratitis, and 9 mice with uniform modeling were selected for the experiment. These 9 mice were randomly divided into 3 groups: control group, 1% A2 group and 0.2% A2 group, with 3 mice per group. According to the grouping, each animal's right eye surface was treated with the corresponding drugs, vehicle or 3024 eye drops with different concentrations, once every other day. On the day of administration, each eye was given 3 drops of 10 μl each time for 2 consecutive weeks. The degree of keratitis lesions was scored and analyzed on days 1, 3, 5, 7, 9, 11 and 14 after modeling.
Grading (i.e., scoring) was performed based on the three criteria of corneal ulcer area, depth and shape, and the total score was recorded by adding.
(1) Corneal ulcer area: Score 1=1% to 25%; Score 2=26% to 50%; Score 3=51% to 75%; and Score 4=76% to 100%.
(2) Lesion depth: Score 1=mild corneal opacity with clear iris texture; Score 2=off-white superficial corneal opacity with visible iris texture; Score 3=off-white deep corneal opacity with unclear iris texture; and Score 4=off-white full-layer dense corneal opacity with unclear anterior chamber.
(3) Corneal ulcer shape: Score 1=mild surface irregularity; Score 2=rough corneal surface with mild swelling; Score 3=severe edema with swelling descemet's membrane; and Score 4=corneal perforation or severe swelling descemet's membrane.
(4) If there is hypopyon and/or hyphema, the score is increased by 1.

The test system of a further series is MHV-A59 virus. The experiment in a line: Pharmacodynamic evaluation for MHV, low-dose virus group. To be noted: 4×10^5 PFU, day 8, control 19.19%. It counts as in vivo, C57BL/6 mice. As for the experimental part:
The effect of A2 on the prevention and treatment of MHV was investigated.
Low-dose virus group: 21 male SPF grade C57BL/6 mice, aged 4 weeks, were divided into three groups: control group, precaution group and therapy group. These mice were anesthetized and then injected intrahepatically (i.h.) with 100 μL of DMEM containing 4×10^5 PFU MHV-A59 virus. The precaution group was given the first dose of A2 at 10 mg/kg 24 hours before the challenge, and the therapy group was given the first dose of A2 at 10 mg/kg 24 hours after the challenge, followed by daily continuous administration (both the precaution group and the therapy group were given a daily dose of 10 mg/kg). The infected mice were monitored daily. Blood samples were collected from the retro-orbital venous plexus on day 0 and day 4 after infection, and serum was extracted to detect alanine aminotransferase (ALT)/alanine aminotransferase (GPT) levels. On day 8 after infection, all groups of mice were sacrificed. Liver tissues were taken for virus titer determination and histological analysis, and spleen tissues were taken for virus specific T proliferation assay.

Regarding `[2H]C([2H])([2H])N1CCC(n2cc(-c3cnc(N)c(OCc4cccc(C#CC(C)(C)O)c4)c3)cn2)CC1` [Compound A2, 4-(3-(((2-amino-5-(1-(1-trideuteriomethylpiperidin-4-yl)-1H-pyrazol-4-yl)pyridin-3-yl)oxy)methyl)phenyl)-2-methylbut-3-yn-2-ol], the results for the “remaining percentage of the parent cores after 60 min” value in series [1], in series [2] and in series [3] were 52.1%, 7.0% and 29.6%, respectively. In addition, the AUC(0-t) in “in vivo” (iv, 1 mg/kg) worked out at 247 ng·h/mL; in “in vivo” (po, 10 mg/kg), 572 ng·h/mL. The clearance in “in vivo” (iv, 1 mg/kg) was 71 mL/min/kg. In addition, in “in vivo” (po, 10 mg/kg), the bioavailability came to 23.2%. Besides, the “keratitis lesion scores vs model control group” value in the series on HSV virus (0.2% eye drops for 2 weeks, P<0.01) is “statistically different”; with HSV virus (1.0% eye drops for 2 weeks, P<0.05), “statistically different”. In addition, the corneal perforation result in the series with HSV virus (0.2% eye drops) and in the series with HSV virus (1% eye drops) was “no corneal perforation” throughout. For the same compound, the “clinical score at the highest peak of the disease (day 5)” value in the series with HSV virus (0.2% eye drops) and in the series on HSV virus (1% eye drops) was “less than 6” throughout. In addition, in the series on HSV virus (1% eye drops (suspension), control group above 1), the corneal neovascularization scoring result is on record as “below 0.5”. The “average proliferation rate of spleen cells (virus specific T cell proliferation)” value in the series on MHV-A59 virus (precaution group, 10 mg/kg daily from 24 hours before challenge) amounted to 28.18%; in the series with MHV-A59 virus (therapy group, 10 mg/kg daily from 24 hours after challenge), 52.95%.

One may read the AUC(0-t) as the area under the concentration-time curve up to a stated or last time point. The low end stands for low exposure, the high end for high exposure. For orientation: clearance means the rate of elimination divided by the concentration. A low value points to inefficient removal. As a reminder, the bioavailability is the share of a dose that reaches the circulation, judged against a reference dose that is usually intravenous.
